Test system: HL60 cells
Experiment: Real-time deformability measurement (circularity) of cells in shear flow through a microfluidic channel
Type: cell-based
Source text: In order to compare the deformation of cells, it is useful to introduce a single parameter to quantify the degree of deformation for each single cell. This can be done in numerous ways. • The circularity of a closed contour is defined by
[formula] where A is the area enclosed by the contour and l is the perimeter.
The circularity relates the ratio of area and perimeter to that of an ideal circle. For an ideal circle c=1. All other shapes result in values smaller than 1. […] For initially spherical cells such as the HL60 cell line the circularity is a very sensitive measure for the induced deformation. However for cells initially having other shapes the circularity may not be the ideal choice, since completely different shapes can lead to the same circularity.
The following experimental protocol is used for all measurements described in this section. For comparability all studies on HL60 cells presented in this application are carried out during the log phase of cell growth (36 h after splitting). Cells are centrifuged for 5 minutes at 800 rpm (which leads to an outward acceleration of about 100 g) using an Eppendorf 5804 R centrifuge (Eppendorf, Hamburg, Germany). […] The viscosity of the medium was measured with a falling sphere viscometer (HAAKE Kugelfallviskosimeter Typ C, Thermo Electron GmbH, Karlsruhe, Germany). […]

For C=C1[C@@H](C)[C@H]2[C@H](Cc3ccccc3)NC(=O)[C@]23[C@H](OC(C)=O)/C=C/[C@@](C)(O)C(=O)[C@@H](C)C/C=C/[C@H]3[C@@H]1O [cytochalasin D], which “circularity (peak of the histogram of circularities)” value (HL60 cells treated with cytochalasin D (2 mM added to a final concentration of 5 μL/ml, 10 minutes at 37° C.), flow rate 0.04 μl/s, 20×20 μm^2 channel section, real time measurement, FIG. 10A) is on record?
The value was 0.929±0.04.

What about the “deformation compared to untreated cells” value (HL60 cells treated with cytochalasin D, flow rate of 0.04 μl/s) of the same compound?
Its value is “deform more”.
